Test results published in US8273753B2, “Polymorph B of N-{2-Fluoro-5-[3-(thiophene-2-carbonyl)-pyrazolo[1,5-a]pyrimidin-7-yl]-phenyl}-N-methyl-acetamide” (Ferrer International, S.A., priority 2006, dated 2012).

Tests used:
Assay type in all cases: in vivo
mice [1] = assay: Spontaneous motor activity in mice after oral administration (induction of sedation); details: for ED50: Mus musculus, oral administration, spontaneous motor activity, read-out: ED50 sedation (dose that induces sedation in 50% of animals)
Procedure: The effect of oral administration of both indiplon and the compound of the present invention on the spontaneous motor activity in mice is an accepted model to evaluate the induction of the sedation, an experiment considered predictive of hypnotic efficacy. In this experiment, the ED50—the dose that induces sedation in 50% of animals—was calculated.

mice [2] = assay: EEG recording of the sleep-wake cycle in mice; details: FIG. 7; for Effect on the three sleep parameters (time of wake, slow wave sleep, paradoxical sleep): mice, EEG, doses ED50, 3-fold and 6-fold
Procedure: This increased sedative/hypnotic efficacy was confirmed by electroencephalographyc (EEG) experiments, when the recording of the sleep-wake cycle in mice was evaluated. Based on the previous experiment, doses were chosen and both compounds were tested at equipotent pharmacological doses (the ED50, 3-fold and 6-fold for both cases).
In FIG. 7, results are expressed as the mean time (min±SEM) spent in each behavioral state during a recording period of 6 h in the same animals (n=9).

mice [3] = assay: Two-way active avoidance paradigm in mice (amnesia liability); details: oral administration; for MED amnesia (minimal effective dose that induces statistically significant impairment of memory): two-way active avoidance
Procedure: Finally, a third experiment to evaluate adverse effects was performed. The model was the two-way active avoidance paradigm, which represents a behavioural test useful for evaluating learning and memory processes in mice. In this case, the amnesia liability index was obtained. Since it was reported that benzodiazepine-like drugs induce amnesia, this index allows to determine the margin between the preclinical effective doses that induce sedation compared to the minimal effective dose that induce statistically significant impairment of memory in mice (MED amnesia/ED50 sedation). Therefore, the amnesic liability index was calculated for both compounds. The results obtained are included in Table 1

[4] = mice n=9, 6 h recording period, largest dose

| SMILES | ED50 (mice [1]) | Sedative potency relative to indiplon (more potent) (mice [1]; oral, ED50 0.13 vs 0.2 mg/Kg) | Paradoxical sleep (PS) time, change (mice [2]; [4]) | Slow wave sleep (SWS) mean time (mice [2]; [4]) | Waking (W) time, change (mice [2]; [4]) | Effect on the three sleep parameters (time of wake, slow wave sleep, paradoxical sleep) (mice [2]) | Amnesic liability Index (MED amnesia/ED50 sedation) (mice [3]) | Greater margin between sedation induction and amnesia than indiplon (mice [3]) | MED amnesia (minimal effective dose that induces statistically significant impairment of memory) (mice [3]) |
| --- | --- | --- | --- | --- | --- | --- | --- | --- | --- |
| CC(=O)N(C)c1cc(-c2ccnc3c(C(=O)c4cccs4)cnn23)ccc1F [Compound (I), N-{2-Fluoro-5-[3-(thiophene-2-carbonyl)-pyrazolo[1,5-a]pyrimidin-7-yl]-phenyl}-N-methyl-acetamide] | 0.13 mg/kg | 35% | increase | up to 140 min | decrease | statistically significant improvement on all three of the parameters evaluated | 75 fold margin | 25 fold | 10 mg/kg |
| CC(=O)N(C)c1cccc(-c2ccnc3c(C(=O)c4cccs4)cnn23)c1 [Indiplon, N-{3-[3-(thiophene-2-carbonyl)-pyrazolo[1,5-a]pyrimidin-7-yl]-phenyl}-N-methyl-acetamide, reference compound] | 0.2 mg/kg | – | – | less than 140 min | – | effective only in one parameter (slow wave sleep) | 50 fold margin | – | 10 mg/kg |
